Data on 56 compounds can be found in patent US20250186321A1, “FORMULATION USING AMINO ACID AND CARBOXYLIC ACID, ORGANIC SALT, AND COMPOSITION COMPRISING SAME AND USE THEREOF” (MIYOSHI OIL & FAT CO., LTD., priority 2021, published 2025).

One data set is described as follows: Appearance of formulation (state at 25° C.). The data set is classed as physicochemical. The following applies: 25° C.; components (A) and (B) at the compounding molar ratio shown. As to the method: Formulations 1 to 427 shown in Tables 1A to 1D were prepared by the above-described method using the components (A) and (B) at the compounding molar ratios shown in the tables, and their states at 25° C. were observed.
Take `N[C@@H](CO)C(=O)O.O=C(O)CCCCC(=O)O` [Formulation 245]: the “state at 25° C.” value was “Solid”.
Regarding `N[C@@H](CO)C(=O)O.O=C(O)CCC(=O)O` [Formulation 246], the “state at 25° C.” value is “Solid”.
As to `N[C@@H](CCC(=O)O)C(=O)O.N[C@@H](CO)C(=O)O` [Formulation 247], the “state at 25° C.” value is on record as “Solid”.
Consider `N[C@@H](CO)C(=O)O.O=C(O)/C=C/C(=O)O` [Formulation 248], for which the “state at 25° C.” value is on record as “Solid”.
`N[C@@H](CO)C(=O)O.O=C(O)C(O)C(O)C(=O)O` (centres unmarked) [Formulation 251]: the “state at 25° C.” value was “Solid”.
For `N[C@@H](CO)C(=O)O.O=C(O)c1ccccc1` [Formulation 252], the “state at 25° C.” value is given as “Solid”.
Still for that read-out and setting: under `N[C@@H](CO)C(=O)O.O=C1O[C@H]([C@@H](O)CO)C(O)=C1O` [Formulation 253] stands “Solid”; under `N[C@@H](CO)C(=O)O.O=C1O[C@H]([C@H](O)CO)C(O)=C1O` [Formulation 254], “Solid”.
As to `C[C@@H](O)[C@H](N)C(=O)O.O=CO` [Formulation 255], the “state at 25° C.” value was “Solid”.
Same read-out and setting: under `CC(=O)O.C[C@@H](O)[C@H](N)C(=O)O` [Formulation 256] stands “Solid”; under `CCC(=O)O.C[C@@H](O)[C@H](N)C(=O)O` [Formulation 257], “Solid”.
The same measure, in the same setting: the entry for `CCCCCC(=O)O.C[C@@H](O)[C@H](N)C(=O)O` [Formulation 258] is “Solid”; for `CCCC(=O)O.C[C@@H](O)[C@H](N)C(=O)O` [Formulation 259] it is “Solid”.
Consider `C[C@@H](O)[C@H](N)C(=O)O.O=C(O)[C@H](O)[C@@H](O)[C@H](O)[C@H](O)CO` [Formulation 260], for which the “state at 25° C.” value is given as “Solid”.
With `CC(O)C(=O)O.C[C@@H](O)[C@H](N)C(=O)O` [Formulation 261], the “state at 25° C.” value is recorded as “Solid”.
In the case of `C[C@@H](O)[C@H](N)C(=O)O.O=C(O)CCCCC(=O)O` [Formulation 262], the “state at 25° C.” value is “Solid”.
`C[C@@H](O)[C@H](N)C(=O)O.O=C(O)CCC(=O)O` [Formulation 263]: the “state at 25° C.” value was “Solid”.
Consider `C[C@@H](O)[C@H](N)C(=O)O.N[C@@H](CCC(=O)O)C(=O)O` [Formulation 264], for which the “state at 25° C.” value is “Solid”.
Regarding `C[C@@H](O)[C@H](N)C(=O)O.O=C(O)/C=C/C(=O)O` [Formulation 265], the “state at 25° C.” value was “Solid”.
For `C[C@@H](O)[C@H](N)C(=O)O.O=C(O)C[C@H](O)C(=O)O` [Formulation 266], the “state at 25° C.” value is listed as “Solid”.
Consider `C[C@@H](O)[C@H](N)C(=O)O.O=C(O)CC(O)(CC(=O)O)C(=O)O` [Formulation 267], for which the “state at 25° C.” value was “Solid”.
In the case of `C[C@@H](O)[C@H](N)C(=O)O.O=C(O)C(O)C(O)C(=O)O` (centres unmarked) [Formulation 268], the “state at 25° C.” value is on record as “Solid”.
For `C[C@@H](O)[C@H](N)C(=O)O.O=C(O)c1ccccc1` [Formulation 269], the “state at 25° C.” value was “Solid”.
As to `C[C@@H](O)[C@H](N)C(=O)O.O=C1O[C@H]([C@@H](O)CO)C(O)=C1O` [Formulation 270], the “state at 25° C.” value was “Solid”.
On to `C[C@@H](O)[C@H](N)C(=O)O.O=C1O[C@H]([C@H](O)CO)C(O)=C1O` [Formulation 271], for which the “state at 25° C.” value was “Solid”.

The data set is the same for the next values; noted with them: Tables 1C-1 to 1D; compounding molar ratio (Component (A):Component (B)) 1:1.
As to `N[C@@H](CS)C(=O)O.O=CO` [Formulation 306], the “state at 25° C.” value is “Solid”.
The same measure, in the same setting: the entry for `CC(=O)O.N[C@@H](CS)C(=O)O` [Formulation 307] is “Solid”.
As for `CCC(=O)O.N[C@@H](CS)C(=O)O` [Formulation 308], the “state at 25° C.” value is reported as “Solid”.
`CCCCCC(=O)O.N[C@@H](CS)C(=O)O` [Formulation 309]: the “state at 25° C.” value was “Solid”.
The same measure, in the same setting: under `CCCC(=O)O.N[C@@H](CS)C(=O)O` [Formulation 310] stands “Solid”; under `N[C@@H](CS)C(=O)O.O=C(O)[C@H](O)[C@@H](O)[C@H](O)[C@H](O)CO` [Formulation 311], “Solid”; under `CC(O)C(=O)O.N[C@@H](CS)C(=O)O` [Formulation 312], “Solid”.
The same measure, in the same setting: the entry for `N[C@@H](CS)C(=O)O.O=C(O)CCCCC(=O)O` [Formulation 313] is “Solid”; for `N[C@@H](CS)C(=O)O.O=C(O)CCC(=O)O` [Formulation 314] it is “Solid”; for `N[C@@H](CCC(=O)O)C(=O)O.N[C@@H](CS)C(=O)O` [Formulation 315] it is “Solid”.
In the case of `N[C@@H](CS)C(=O)O.O=C(O)/C=C/C(=O)O` [Formulation 316], the “state at 25° C.” value is on record as “Solid”.
In the case of `N[C@@H](CS)C(=O)O.O=C(O)C[C@H](O)C(=O)O` [Formulation 317], the “state at 25° C.” value is given as “Solid”.
As to `N[C@@H](CS)C(=O)O.O=C(O)CC(O)(CC(=O)O)C(=O)O` [Formulation 318], the “state at 25° C.” value was “Solid”.
Still for that read-out and setting: the entry for `N[C@@H](CS)C(=O)O.O=C(O)C(O)C(O)C(=O)O` (centres unmarked) [Formulation 319] is “Solic”; for `N[C@@H](CS)C(=O)O.O=C(O)c1ccccc1` [Formulation 320] it is “Solid”; for `N[C@@H](CS)C(=O)O.O=C1O[C@H]([C@@H](O)CO)C(O)=C1O` [Formulation 321] it is “Solid”.
In the case of `N[C@@H](CS)C(=O)O.O=C1O[C@H]([C@H](O)CO)C(O)=C1O` [Formulation 322], the “state at 25° C.” value is reported as “Solid”.
As for `CSCC[C@H](N)C(=O)O.O=CO` [Formulation 323], the “state at 25° C.” value is on record as “Solid”.
With `CC(=O)O.CSCC[C@H](N)C(=O)O` [Formulation 324], the “state at 25° C.” value is reported as “Solid”.
On to `CCC(=O)O.CSCC[C@H](N)C(=O)O` [Formulation 325], for which the “state at 25° C.” value is listed as “Solid”.
The same measure, in the same setting: under `CCCCCC(=O)O.CSCC[C@H](N)C(=O)O` [Formulation 326] stands “Solid”.
Same read-out and setting: the entry for `CCCC(=O)O.CSCC[C@H](N)C(=O)O` [Formulation 327] is “Solid”.
As for `CSCC[C@H](N)C(=O)O.O=C(O)[C@H](O)[C@@H](O)[C@H](O)[C@H](O)CO` [Formulation 328], the “state at 25° C.” value is reported as “Solid”.
Still for that read-out and setting: the entry for `CC(O)C(=O)O.CSCC[C@H](N)C(=O)O` [Formulation 329] is “Solid”; for `CSCC[C@H](N)C(=O)O.O=C(O)CCCCC(=O)O` [Formulation 330] it is “Solid”.
In the case of `CSCC[C@H](N)C(=O)O.O=C(O)CCC(=O)O` [Formulation 331], the “state at 25° C.” value is recorded as “Solid”.
For the compound `CSCC[C@H](N)C(=O)O.N[C@@H](CCC(=O)O)C(=O)O` [Formulation 332], the “state at 25° C.” value is recorded as “Solid”.
As for `CSCC[C@H](N)C(=O)O.O=C(O)/C=C/C(=O)O` [Formulation 333], the “state at 25° C.” value is on record as “Solid”.
Turning to `CSCC[C@H](N)C(=O)O.O=C(O)C[C@H](O)C(=O)O` [Formulation 334], the “state at 25° C.” value is reported as “Solid”.
For `CSCC[C@H](N)C(=O)O.O=C(O)CC(O)(CC(=O)O)C(=O)O` [Formulation 335], the “state at 25° C.” value is on record as “Solid”.
With `CSCC[C@H](N)C(=O)O.O=C(O)C(O)C(O)C(=O)O` (centres unmarked) [Formulation 336], the “state at 25° C.” value is “Solid”.
